Source: US20240287108A1, “nSMASE2 INHIBITOR PRODRUGS WITH ENHANCED ORAL AND BRAIN EXPOSURES” (The Johns Hopkins University, priority 2021, published 2024)
Read-outs that look alike come from different tables or passages of the source.

How the values were obtained:
[1] = in vitro stability in CES1−/− mouse plasma; assay type: in vitro ADME; settings: 10 μM
Description: All synthesized prodrugs were next screened for in vitro stability in carboxylesterase 1 knockout (CES1^−/−) mouse plasma, as well as CES1^−/− mouse brain and liver homogenates (Table 2-1). We have previously reported that CES1^−/− mouse model recapitulates human prodrug metabolism. Tenora et al., 2019.
(§1) Zimmermann et al., 2018. For the tissue homogenates, washed tissues were diluted 10-fold in 0.1 M potassium phosphate buffer and homogenized using a probe sonicator. To evaluate the stability of the intact prodrug over time, each of the crude homogenates and plasma were aliquoted to 1 mL and then spiked with a final assay concentration of 10 μM of each prodrug followed by incubation in an orbital shaker at 37° C. for 1 h (in triplicate). Sample from each incubation at predetermined time points (0 min, and 1 h) was quenched with three volumes of acetonitrile containing the internal standard (IS; losartan: 0.5 μm). Samples were vortex-mixed for 30 secs and centrifuged at 10,000×g for 10 min at 4° C. Disappearance of intact prodrugs from these samples were performed on a Dionex ultra-high-performance LC system coupled with Q Exactive Focus orbitrap mass spectrometer (Thermo Fisher Scientific Inc., Waltham MA). The separation of analytes was achieved using the Agilent Eclipse Plus column (100×2.1 mm i.d.; maintained at 35° C.) packed with a 1.8 μm C18 stationary phase. The mobile phase consisted of 0.1% formic acid in water and 0.1% formic acid in acetonitrile. Pumps were operated at a flow rate of 0.4 mL/min for 9 min using gradient elution. The mass spectrometer controlled by Xcalibur software 4.0.27.13 (Thermo Scientific) was operated with a heated electrospray ionization (HESI) ion source in positive ionization mode. Quantification of the prodrugs were performed in the full-scan mode (from m/z 50 to 1600) by comparing t=0 samples with t=60 min samples.

[2] = in vivo pharmacokinetic studies in mice (Example 1); set-up: species or system mouse; settings: mice; for Cmax / AUC / Tmax: po
Description: 1.2.1 In vitro metabolic stability assessment. In vitro metabolic stability assessment was performed using mouse plasma, and liver homogenates. For the liver homogenates, washed tissues were diluted 10-fold in 0.1 M potassium phosphate buffer and homogenized using a probe sonicator. To evaluate the stability of the intact prodrug over time, each of the tissue matrix were aliquoted to 1 mL and then spiked with 10 μM of corresponding prodrugs followed by incubation in an orbital shaker at 37° C. for 1 h (in triplicate). Sample from each incubation at predetermined time points (0 min, and 1 h) was quenched with three volumes of acetonitrile containing the internal standard (IS: losartan: 0.5 μm). Samples were vortex-mixed for 30 secs and centrifuged at 10,000 RPM for 10 min at 4° C. Disappearance of the intact compound was measured using liquid chromatography tandem mass spectrometry (LC-MS/MS). 1.2.2 In vivo pharmacokinetic studies in mice. Male CD-1 mice (n=3) were used to study the pharmacokinetic profiles of representive prodrug compounds. […] Blood and brain were collected after sacrificing the mice at predetermined time points. Plasma was harvested from blood by centrifugation at 3,000 RPM for 15 min and stored at −80° C. Brain tissues were harvested following blood collection and immediately snap frozen in liquid nitrogen and stored at −80° C. until LC-MS/MS analysis. […] Brain tissues were diluted 1:5 w/v with acetonitrile containing losartan (0.5 μm) and homogenized, followed by vortex-mixing and centrifugation at 10,000 RPM for 10 min at 4° C. A 50 μL aliquot of the supernatant was diluted with 50 μL of water and transferred to 250 μL polypropylene autosampler vials sealed with teflon caps. Then, 2 μL of the sample was injected into the LC-MS/MS system for analysis.

[3] = in vitro stability in CES1−/− mouse brain homogenates; assay type: in vitro ADME; settings: CES1−/− mouse brain homogenate, 10 μM, 37° C.
Description: (§2) All synthesized prodrugs were next screened for in vitro stability in carboxylesterase 1 knockout (CES1^−/−) mouse plasma, as well as CES1^−/− mouse brain and liver homogenates (Table 2-1). We have previously reported that CES1^−/− mouse model recapitulates human prodrug metabolism.
as §1, with “For” for “Zimmermann et al., 2018. For”, “The separation of analytes was achieved using the Agilent Eclipse Plus column (100×2.1 mm i.d.; maintained at 35° C.) packed with a 1.8 μm C18 stationary phase.” left out

[4] = in vitro stability in CES1−/− mouse liver homogenates; assay type: in vitro ADME; settings: CES1−/− mouse liver homogenate, 10 μM, 37° C.
Description: as §2
as §1, with “For” for “Zimmermann et al., 2018. For”, “The separation of analytes was achieved using the Agilent Eclipse Plus column (100×2.1 mm i.d.; maintained at 35° C.) packed with a 1.8 μm C18 stationary phase.” left out

[5] = male, CD-1, mouse, intact prodrug, brain, 10 mg/kg eqv
[6] = male, CD-1, mouse, intact prodrug, plasma, 10 mg/kg eqv
[7] = CES1−/− (carboxylesterase 1 knockout), mouse, plasma

Structure (SMILES)	Stability in mouse (% remaining at 1h) Mean + Std Error, Plasma ([1]; CES1−/− mouse plasma, 37° C.) [%]	Stability in mouse (% remaining at 1h) Mean + Std Error, Brain [3] [%]	Stability in mouse (% remaining at 1h) Mean + Std Error, Liver [4] [%]	also measured
COc1cc(-c2nc(-c3ccccc3)c(-c3cccs3)[nH]2)cc(OC)c1OC(=O)N(C)C [Compound P5, 2,6-Dimethoxy-4-(4-phenyl-5-(thiophen-2-yl)-1H-imidazol-2-yl)phenyl dimethylcarbamate]	96 ± 3	100 ± 2	100 ± 1	Cmax ([2]; male, CD-1, mouse, in vivo, 10 mg/kg, oral 10 mg/kg DPTIP equivalent, read-out: plasma Cmax of intact prodrug): 4300 nM; improved oral absorption as intact versus DPTIP ([2]; plasma Cmax, oral 10 mg/kg DPTIP equivalent): 10 ×
COc1cc(-c2nc(-c3ccccc3)c(-c3cccs3)[nH]2)cc(OC)c1OC(=O)N1C2CCC1CC(N1CCCCC1)C2 (centres unmarked) [Compound P13, 2,6-Dimethoxy-4-(5-phenyl-4-(thiophen-2-yl)-1H-imidazol-2-yl)phenyl 3-(piperidin-1-yl)-8-azabicyclo[3.2.1]octane-8-carboxylate]	87 ± 2	84 ± 1	78 ± 4	–
CCCCCC(=O)Oc1c(OC)cc(-c2nc(-c3ccccc3)c(-c3cccs3)[nH]2)cc1OC [Compound P2, 2,6-Dimethoxy-4-(4-phenyl-5-(thiophen-2-yl)-1H-imidazol-2-yl)phenyl hexanoate]	–	–	–	Kp ([2]; male, CD-1, mouse, brain and plasma, oral, intact prodrug, 10 mg/kg eqv, read-out: Brain:Plasma ratio): 0.23; AUC [2, 5]: 1.66 nM·h; Tmax [2, 5]: 15 min; Cmax ([2]; male, CD-1, mouse, intact prodrug, brain, 10 mg/kg eqv, read-out: Cmax): 9.8 ± 0.6 nM; AUC [2, 6]: 7.04 nM·h; Tmax [2, 6]: 15 min; Cmax ([2]; male, CD-1, mouse, intact prodrug, plasma, 10 mg/kg eqv, read-out: Cmax): 51.1 ± 4.6 nM
CCCCCN(C)C(=O)Oc1c(OC)cc(-c2nc(-c3ccccc3)c(-c3cccs3)[nH]2)cc1OC [Compound P7, 2,6-Dimethoxy-4-(5-phenyl-4-(thiophen-2-yl)-1H-imidazol-2-yl)phenyl methyl (pentyl) carbamate]	50 ± 2	–	85 ± 3	–
COc1cc(-c2nc(-c3ccccc3)c(-c3cccs3)[nH]2)cc(OC)c1OC(=O)N1C2CCCC1CC2 [Compound P12, 2,6-Dimethoxy-4-(5-phenyl-4-(thiophen-2-yl)-1H-imidazol-2-yl)phenyl 8-azabicyclo[3.2.1]octane-8-carboxylate]	–	–	–	Stability in mouse (% remaining at 1h) Mean + Std Error, Plasma [1, 7]: 85 ± 9%
COc1cc(-c2nc(-c3ccccc3)c(-c3cccs3)[nH]2)cc(OC)c1OCOP(=O)(O)O [Compound P15, (2,6-Dimethoxy-4-(4-phenyl-5-(thiophen-2-yl)-1H-imidazol-2-yl)phenoxy) methyl dihydrogen phosphate]	–	–	21 ± 0	–
CCCCCNC(=O)Oc1c(OC)cc(-c2nc(-c3ccccc3)c(-c3cccs3)[nH]2)cc1OC [Compound P8, 2,6-Dimethoxy-4-(5-phenyl-4-(thiophen-2-yl)-1H-imidazol-2-yl)phenyl pentylcarbamate]	60 ± 6	–	83 ± 2	–
COc1cc(-c2nc(-c3ccccc3)c(-c3cccs3)[nH]2)cc(OC)c1OP(=O)(O)O [Compound P14, 2,6-Dimethoxy-4-(4-phenyl-5-(thiophen-2-yl)-1H-imidazol-2-yl)phenyl dihydrogen phosphate]	91 ± 4	102 ± 2	55 ± 1	–
CCC1CCCC(CC)N1C(=O)Oc1c(OC)cc(-c2nc(-c3ccccc3)c(-c3cccs3)[nH]2)cc1OC (centres unmarked) [Compound P10, 2,6-Dimethoxy-4-(5-phenyl-4-(thiophen-2-yl)-1H-imidazol-2-yl)phenyl 2,6-diethylpiperidine-1-carboxylate]	–	90 ± 1	51 ± 1	Stability in mouse (% remaining at 1h) Mean + Std Error, Plasma [1, 7]: 78 ± 5%
CCCN(CCC)C(=O)Oc1c(OC)cc(-c2nc(-c3ccccc3)c(-c3cccs3)[nH]2)cc1OC [Compound P11, 2,6-Dimethoxy-4-(5-phenyl-4-(thiophen-2-yl)-1H-imidazol-2-yl)phenyl dipropylcarbamate]	99 ± 2	95 ± 4	62 ± 4	–
COc1cc(-c2nc(-c3ccccc3)c(-c3cccs3)[nH]2)cc(OC)c1OC(=O)c1ccc[n+](C)c1.[I-] [Compound 6]	–	–	–	brain levels of DPTIP ([2]; oral 10 mg/kg DPTIP equivalent): approximately 150 nM
COc1cc(-c2nc(-c3ccccc3)c(-c3cccs3)[nH]2)cc(OC)c1OC(=O)C(C)(C)C [Compound P4, 2,6-Dimethoxy-4-(4-phenyl-5-(thiophen-2-yl)-1H-imidazol-2-yl)phenyl pivalate]	–	93 ± 1	–	–
CCCCCCCNC(=O)Oc1c(OC)cc(-c2nc(-c3ccccc3)c(-c3cccs3)[nH]2)cc1OC [Compound P9, 2,6-Dimethoxy-4-(5-phenyl-4-(thiophen-2-yl)-1H-imidazol-2-yl)phenyl heptylcarbamate]	60 ± 4	84 ± 4	97 ± 4	–
